Converted amounts (≈) assume the structure as drawn. One block for each molecule: values may come before it.
Legend:
[1] = Inhibition of bovine brain microtubule polymerization incubated for 60 mins by spectrophotometric method; parameters: species or system Bos taurus
Aromatase = Aromatase (Homo sapiens, UniProt P11511); experiment: Inhibition of recombinant human CYP19 using MFC as substrate incubated for 30 mins in presence of NADPH by fluorescence based assay
HepG2 [2] = experiment: Antiproliferative activity against human HepG2 cells assessed as reduction in cell viability after 72 hrs by MTT assay; type: functional, cell-based; details: HepG2, 72 h
A549 [3] = experiment: Antiproliferative activity against human A549 cells assessed as reduction in cell viability after 72 hrs by MTT assay; type: functional, cell-based; details: A549, 72 h
K562 [4] = experiment: Antiproliferative activity against human K562 cells assessed as reduction in cell viability after 72 hrs by MTT assay; type: functional, cell-based; details: K562, 72 h
MOLT-3 = experiment: Antiproliferative activity against human MOLT3 cells assessed as reduction in cell viability after 3 days by MTT assay; type: functional, cell-based; details: MOLT-3, 72 h
[5] = molecular target: Histone deacetylase 3/Nuclear receptor corepressor 2 (HDAC3/NCoR2) (Homo sapiens, UniProt O15379); experiment: Inhibition of recombinant human C-terminal GST/His-tagged HDAC3 (1 to 428 residues) co-expressed with human N-terminal GST-tagged NCOR2 (395 to 489 residues) in baculovirus infected Sf9 cells using Boc-Lys(Ac)-AMC as substrate preincubated for 15 mins followed by substrate addition and measured after 60 mins by fluorometric method
THP-1 = experiment: Growth inhibition of human THP1 cells incubated for 72 hrs by trypan blue assay; type: functional; details: THP-1, 72 h
[6] = molecular target: Bromodomain-containing protein 4 (Homo sapiens) (UniProt O60885); experiment: Inhibition of GST-tagged BRD4 bromodomain 1/2 (unknown origin) at 10 uM incubated for 3 hrs by fluorescence based assay relative to control
A549 [7] = experiment: Antiproliferative activity against human A549 cells assessed as reduction in cell viability after 48 hrs by MTT assay; type: functional, cell-based; details: A549, 48 h
MCF7 [8] = experiment: Antiproliferative activity against human MCF7 cells assessed as reduction in cell viability after 48 hrs by MTT assay; type: functional, cell-based; details: MCF7, 48 h
HeLa = experiment: Antiproliferative activity against human HeLa cells assessed as reduction in cell viability after 48 hrs by MTT assay; type: functional, cell-based
HepG2 [9] = experiment: Antiproliferative activity against human HepG2 cells assessed as reduction in cell viability after 48 hrs by MTT assay; type: functional, cell-based; details: HepG2, 48 h
Tubulin = Tubulin (Bos taurus, UniProt Q6B856+Q862L2+Q862F3); experiment: Inhibition of bovine brain tubulin polymerization by spectrometric analysis
[10] = molecular target: Sigma non-opioid intracellular receptor 1 (Cavia porcellus, UniProt Q60492); experiment: Displacement of (+)-[3H]pentazocine from sigma1 receptor in guinea pig brain membranes; type: cell membranes
HCT-116 = experiment: Antiproliferative activity against human HCT116 cells assessed as reduction in cell viability by MTT assay; type: functional, cell-based
LoVo = experiment: Antiproliferative activity against human LoVo cells assessed as reduction in cell viability by MTT assay; type: functional, cell-based
K562 [11] = experiment: Antiproliferative activity against human K562 cells assessed as reduction in cell viability by MTT assay; type: functional, cell-based
MCF7 [12] = experiment: Antiproliferative activity against human MCF7 cells assessed as reduction in cell viability by MTT assay; type: functional, cell-based
HepG2 [13] = experiment: Antiproliferative activity against human HepG2 cells assessed as reduction in cell viability by MTT assay; type: functional, cell-based
[14] = molecular target: Protein deacetylase HDAC6 (Homo sapiens, UniProt Q9UBN7); experiment: Inhibition of HDAC6 (unknown origin) by fluorescence based assay
Histone deacetylase 8 = Histone deacetylase 8 (Homo sapiens, UniProt Q9BY41); experiment: Inhibition of HDAC8 (unknown origin) by fluorescence based assay
[15] = molecular target: Induced myeloid leukemia cell differentiation protein Mcl-1 (Homo sapiens, UniProt Q07820); experiment: Inhibition of MCL1 (unknown origin)
Histone deacetylase 3 = Histone deacetylase 3 (Homo sapiens, UniProt O15379); experiment: Inhibition of HDAC3 (unknown origin)
Histone deacetylase 2 = Histone deacetylase 2 (Homo sapiens, UniProt Q92769); experiment: Inhibition of HDAC2 (unknown origin)
[16] = molecular target: Polyamine deacetylase HDAC10 (Homo sapiens, UniProt Q969S8); experiment: Inhibition of HDAC10 (unknown origin)
Histone deacetylase 1 = Histone deacetylase 1 (Homo sapiens, UniProt Q13547)
Description: Inhibition of HDAC1 (unknown origin)

HT-29 = experiment: Antiproliferative activity against human HT-29 cells assessed as reduction in cell viability after 48 hrs by MTT assay; type: functional, cell-based; details: HT-29, 48 h
HuCC-A1 = experiment: Antiproliferative activity against human HuCCa1 cells assessed as reduction in cell viability after 3 days by MTT assay; type: functional, cell-based; details: HuCC-A1, 72 h

Induced myeloid leukemia cell differentiation protein Mcl-1, sequence (Q07820 whole entry): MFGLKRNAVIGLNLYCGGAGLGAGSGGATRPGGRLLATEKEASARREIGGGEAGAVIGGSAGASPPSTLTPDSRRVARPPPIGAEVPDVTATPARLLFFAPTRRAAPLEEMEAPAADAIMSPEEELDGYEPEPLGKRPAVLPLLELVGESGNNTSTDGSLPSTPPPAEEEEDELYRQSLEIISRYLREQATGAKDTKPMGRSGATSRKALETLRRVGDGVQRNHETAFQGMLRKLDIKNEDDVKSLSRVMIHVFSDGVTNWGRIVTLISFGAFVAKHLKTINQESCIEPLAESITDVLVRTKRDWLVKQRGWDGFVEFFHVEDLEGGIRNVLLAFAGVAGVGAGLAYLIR
Aromatase, sequence (P11511 whole entry): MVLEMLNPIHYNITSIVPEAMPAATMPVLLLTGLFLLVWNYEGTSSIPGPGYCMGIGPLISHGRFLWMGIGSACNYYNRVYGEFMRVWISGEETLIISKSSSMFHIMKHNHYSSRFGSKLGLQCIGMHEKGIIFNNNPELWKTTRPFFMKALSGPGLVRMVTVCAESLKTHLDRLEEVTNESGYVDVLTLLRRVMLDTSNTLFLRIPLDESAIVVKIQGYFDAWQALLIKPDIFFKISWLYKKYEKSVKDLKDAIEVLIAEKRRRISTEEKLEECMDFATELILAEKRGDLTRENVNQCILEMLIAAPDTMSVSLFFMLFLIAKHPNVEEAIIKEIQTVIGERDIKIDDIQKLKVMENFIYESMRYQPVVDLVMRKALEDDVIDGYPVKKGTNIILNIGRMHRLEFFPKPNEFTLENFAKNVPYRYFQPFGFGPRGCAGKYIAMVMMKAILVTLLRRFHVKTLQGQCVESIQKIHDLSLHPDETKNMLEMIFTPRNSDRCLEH
Sigma non-opioid intracellular receptor 1, sequence (Q60492 whole entry): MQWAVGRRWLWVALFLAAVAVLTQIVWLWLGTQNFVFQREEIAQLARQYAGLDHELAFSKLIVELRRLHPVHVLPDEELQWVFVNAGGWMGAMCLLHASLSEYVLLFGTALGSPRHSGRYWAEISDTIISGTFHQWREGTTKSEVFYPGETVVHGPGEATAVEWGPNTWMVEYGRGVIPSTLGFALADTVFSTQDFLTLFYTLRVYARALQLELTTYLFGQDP
Histone deacetylase 8, sequence (Q9BY41 whole entry): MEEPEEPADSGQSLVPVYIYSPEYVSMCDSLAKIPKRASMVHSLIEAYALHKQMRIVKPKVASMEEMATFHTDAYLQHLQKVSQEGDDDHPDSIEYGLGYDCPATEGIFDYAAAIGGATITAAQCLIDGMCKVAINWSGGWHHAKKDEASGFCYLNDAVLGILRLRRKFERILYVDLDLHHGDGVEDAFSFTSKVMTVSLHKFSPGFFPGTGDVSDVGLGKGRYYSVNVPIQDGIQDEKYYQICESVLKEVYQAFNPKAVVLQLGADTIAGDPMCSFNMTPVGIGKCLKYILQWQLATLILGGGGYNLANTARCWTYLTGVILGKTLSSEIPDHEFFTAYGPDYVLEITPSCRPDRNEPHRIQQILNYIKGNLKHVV
Polyamine deacetylase HDAC10, sequence (Q969S8 whole entry): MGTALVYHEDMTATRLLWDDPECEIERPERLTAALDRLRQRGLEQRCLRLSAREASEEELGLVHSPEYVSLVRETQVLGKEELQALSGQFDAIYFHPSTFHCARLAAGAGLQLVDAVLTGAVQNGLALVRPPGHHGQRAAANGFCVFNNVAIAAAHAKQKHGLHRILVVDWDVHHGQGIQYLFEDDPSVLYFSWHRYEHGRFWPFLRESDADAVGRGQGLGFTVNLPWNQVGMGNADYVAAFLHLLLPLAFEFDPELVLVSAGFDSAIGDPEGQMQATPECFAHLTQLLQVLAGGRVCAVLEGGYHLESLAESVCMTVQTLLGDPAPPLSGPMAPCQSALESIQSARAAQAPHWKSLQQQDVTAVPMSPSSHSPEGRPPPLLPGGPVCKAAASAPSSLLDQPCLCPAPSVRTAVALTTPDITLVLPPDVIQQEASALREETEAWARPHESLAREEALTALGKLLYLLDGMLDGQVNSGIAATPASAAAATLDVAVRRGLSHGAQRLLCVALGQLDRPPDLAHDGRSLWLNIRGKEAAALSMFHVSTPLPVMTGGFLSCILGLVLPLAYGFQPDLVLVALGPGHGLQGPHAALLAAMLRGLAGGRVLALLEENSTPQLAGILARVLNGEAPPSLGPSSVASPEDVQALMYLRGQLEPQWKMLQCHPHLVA
Histone deacetylase 1, sequence (Q13547 whole entry): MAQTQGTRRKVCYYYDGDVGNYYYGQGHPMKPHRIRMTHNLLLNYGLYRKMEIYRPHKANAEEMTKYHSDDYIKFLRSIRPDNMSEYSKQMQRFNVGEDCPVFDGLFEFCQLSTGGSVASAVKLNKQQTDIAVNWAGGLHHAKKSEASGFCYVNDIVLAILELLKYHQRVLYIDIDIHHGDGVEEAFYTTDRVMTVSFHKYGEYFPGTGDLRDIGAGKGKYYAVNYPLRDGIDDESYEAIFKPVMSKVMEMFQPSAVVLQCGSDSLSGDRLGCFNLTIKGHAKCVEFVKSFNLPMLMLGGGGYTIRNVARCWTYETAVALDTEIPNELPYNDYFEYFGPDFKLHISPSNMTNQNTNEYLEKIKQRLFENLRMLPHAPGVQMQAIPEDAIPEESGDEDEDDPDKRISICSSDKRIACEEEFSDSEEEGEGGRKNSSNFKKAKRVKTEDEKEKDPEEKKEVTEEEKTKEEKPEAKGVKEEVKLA
Protein deacetylase HDAC6, sequence (Q9UBN7 whole entry): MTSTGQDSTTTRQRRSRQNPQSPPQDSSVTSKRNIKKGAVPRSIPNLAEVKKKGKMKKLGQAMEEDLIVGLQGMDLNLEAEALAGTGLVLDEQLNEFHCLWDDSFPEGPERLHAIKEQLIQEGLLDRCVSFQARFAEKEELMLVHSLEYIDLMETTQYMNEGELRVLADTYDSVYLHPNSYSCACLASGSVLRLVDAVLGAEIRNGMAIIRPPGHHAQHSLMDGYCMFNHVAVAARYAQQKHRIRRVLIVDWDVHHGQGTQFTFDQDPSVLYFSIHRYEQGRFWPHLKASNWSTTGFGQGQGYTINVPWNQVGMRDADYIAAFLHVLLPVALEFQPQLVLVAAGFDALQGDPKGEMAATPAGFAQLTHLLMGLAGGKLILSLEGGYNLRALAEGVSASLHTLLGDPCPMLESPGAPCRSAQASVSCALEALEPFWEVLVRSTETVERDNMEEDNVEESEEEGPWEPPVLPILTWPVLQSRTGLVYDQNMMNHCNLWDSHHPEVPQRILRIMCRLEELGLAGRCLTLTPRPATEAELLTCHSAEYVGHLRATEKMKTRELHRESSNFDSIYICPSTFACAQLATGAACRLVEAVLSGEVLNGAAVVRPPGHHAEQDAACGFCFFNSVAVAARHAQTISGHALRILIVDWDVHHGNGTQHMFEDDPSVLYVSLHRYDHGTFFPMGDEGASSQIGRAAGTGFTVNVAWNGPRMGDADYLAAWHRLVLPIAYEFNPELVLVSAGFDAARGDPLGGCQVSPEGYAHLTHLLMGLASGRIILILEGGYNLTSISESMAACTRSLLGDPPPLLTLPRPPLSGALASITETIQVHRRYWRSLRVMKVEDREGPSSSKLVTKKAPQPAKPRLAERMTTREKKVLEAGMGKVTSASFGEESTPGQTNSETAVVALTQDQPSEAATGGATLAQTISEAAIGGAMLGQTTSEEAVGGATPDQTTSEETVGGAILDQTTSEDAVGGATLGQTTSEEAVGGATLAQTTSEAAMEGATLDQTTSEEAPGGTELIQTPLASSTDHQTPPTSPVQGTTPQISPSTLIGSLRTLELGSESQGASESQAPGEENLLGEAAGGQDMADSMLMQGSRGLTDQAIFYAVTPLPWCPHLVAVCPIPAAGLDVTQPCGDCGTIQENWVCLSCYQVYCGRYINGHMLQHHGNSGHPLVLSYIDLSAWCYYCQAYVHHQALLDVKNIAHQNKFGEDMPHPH
Histone deacetylase 3, sequence (O15379 whole entry): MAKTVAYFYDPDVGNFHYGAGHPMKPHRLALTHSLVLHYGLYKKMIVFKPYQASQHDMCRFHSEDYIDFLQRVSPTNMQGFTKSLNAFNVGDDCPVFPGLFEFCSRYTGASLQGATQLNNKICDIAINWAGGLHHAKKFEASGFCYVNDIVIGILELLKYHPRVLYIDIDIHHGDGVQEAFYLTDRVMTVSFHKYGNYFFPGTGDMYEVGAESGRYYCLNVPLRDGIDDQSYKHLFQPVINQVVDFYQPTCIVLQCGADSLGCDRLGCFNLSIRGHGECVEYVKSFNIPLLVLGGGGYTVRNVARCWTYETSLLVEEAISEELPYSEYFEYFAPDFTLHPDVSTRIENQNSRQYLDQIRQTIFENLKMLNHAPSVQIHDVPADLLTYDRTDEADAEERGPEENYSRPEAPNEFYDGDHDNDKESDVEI
Histone deacetylase 2, sequence (Q92769 whole entry): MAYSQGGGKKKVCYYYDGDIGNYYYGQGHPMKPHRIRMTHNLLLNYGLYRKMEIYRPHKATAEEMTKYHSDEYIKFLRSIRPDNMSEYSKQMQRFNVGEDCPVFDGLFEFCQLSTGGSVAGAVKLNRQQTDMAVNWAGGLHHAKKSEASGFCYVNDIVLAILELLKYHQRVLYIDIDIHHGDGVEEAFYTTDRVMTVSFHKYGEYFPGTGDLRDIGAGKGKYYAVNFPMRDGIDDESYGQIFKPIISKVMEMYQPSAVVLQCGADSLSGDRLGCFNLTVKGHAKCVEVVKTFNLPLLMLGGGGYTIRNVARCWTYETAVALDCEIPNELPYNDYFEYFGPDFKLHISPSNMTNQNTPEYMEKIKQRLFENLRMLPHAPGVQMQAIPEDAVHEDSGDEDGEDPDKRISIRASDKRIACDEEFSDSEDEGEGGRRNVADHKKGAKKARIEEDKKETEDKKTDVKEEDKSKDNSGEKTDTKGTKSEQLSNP

Compound: Cc1[nH]c2ccccc2c1/C=N\Nc1ccc(Cl)cc1
IC50 (Aromatase): 8720 nM

Compound: O=[N+]([O-])c1ccc(S(=O)(=O)NCCc2c(C(c3ccccc3O)c3[nH]c4ccccc4c3CCNS(=O)(=O)c3ccc([N+](=O)[O-])cc3)[nH]c3ccccc23)cc1
IC50 (MOLT-3): 3.95 µg/mL (≈ 4.97 µM)

Compound: Cc1noc(C)c1-c1ccc2c(c1)c(Cc1ccc(F)cc1)cn2CCCCCCC(=O)NO
IC50 [5]: 5 nM
GI50 (THP-1): 7820 to 24200 nM
inhibition [6]: 88%

Compound: Nc1ccc(F)cc1NC(=O)c1ccc(CNC(=O)/C=C/c2cccnc2)cc1
IC50 (Histone deacetylase 3): 67 nM
IC50 (Histone deacetylase 2): 160 nM
IC50 [16]: 78 nM
IC50 (Histone deacetylase 1): 95 nM

Compound: CN1CCN(c2ncc([N+](=O)[O-])c(Nc3c(C(=O)c4cccs4)[nH]c4cc(Cl)ccc34)n2)CC1
IC50 (HT-29): 5560 nM
IC50 (A549 [7]): 14400 nM

Compound: O=S(=O)(NCCc1c(C(c2ccccc2O)c2[nH]c3ccccc3c2CCNS(=O)(=O)c2ccc(Cl)cc2)[nH]c2ccccc12)c1ccc(Cl)cc1
IC50 (A549 [3]): 8740 nM
IC50 (HuCC-A1): 7750 nM

Further lines, results first:

Ki [1]: 85 nM
Compound: CC[C@]1(O)C[C@H]2CN(CCc3c([nH]c4ccccc34)[C@@](C(=O)OC)(c3cc4c(cc3OC)N(C=O)[C@H]3[C@@](O)(C(=O)OC)[C@H](OC(C)=O)[C@]5(CC)C=CCN6CC[C@]43[C@@H]65)C2)C1 [VINCRISTINE]

IC50 (HepG2 [2]): 75 nM
IC50 (A549 [3]): 305 nM
IC50 (K562 [4]): 55 nM
Compound: COc1cc(S(=O)(=O)/C=C/c2cccc3[nH]ccc23)cc(OC)c1OC

IC50 (A549 [7]): 260 nM
IC50 (MCF7 [8]): 290 nM
IC50 (HeLa): 210 nM
IC50 (HepG2 [9]): 310 nM
IC50 (Tubulin): 2120 nM
Compound: COc1cc(C2=NN(C(N)=O)C(c3cn(C)c4ccc(Br)cc34)C2)cc(OC)c1OC (stereo unspecified)

Ki [10]: 5.34 nM
Compound: COc1cc2c(cc1OC)CN(CCCCc1cn(-c3ccc(F)cc3)c3ccccc13)CC2

IC50 (HCT-116): 3570 to 6210 nM
IC50 (LoVo): 3570 to 6210 nM
IC50 (K562 [11]): 3570 to 6210 nM
IC50 (MCF7 [12]): 3570 to 6210 nM
IC50 (HepG2 [13]): 3570 to 6210 nM
IC50 [14]: 290 nM
IC50 (Histone deacetylase 8): 380 nM
Compound: COc1ccc2[nH]cc(Cn3cc(COc4ccc(/C=C/C(=O)NO)cc4OC)nn3)c2c1

Ki [15]: 2.4 nM
Compound: Cc1cc(OCCCc2c(C(=O)NS(=O)(=O)c3ccc(C(=O)NCc4ccccc4)o3)[nH]c3c(-c4c(C)n[nH]c4C)c(Cl)ccc23)cc(C)c1Cl

— ChEMBL document CHEMBL4342416, “Indole: A privileged scaffold for the design of anti-cancer agents” (Eur J Med Chem, 2019)
